According to patent US20260232767A1, “INTERLEUKIN-23 RECEPTOR ANTAGONIST PEPTIDES FOR USE IN THE TREATMENT OF PSORIASIS” (Janssen Pharmaceutica NV, priority 2023, published 2026):

Tested on: subjects with moderate-to-severe plaque psoriasis
Assay: Safety, adverse events, Example 2 through Week 56
Type: in vivo, human
Settings: through Week 56
From the text: The LTE safety analysis was based on randomized participants in Example who entered the present long-term extension study and received at least one dose of study intervention (including a partial dose) during the study period.

[1] = Placebo → 100 mg QD after crossover

SMILES: CC(=O)NCCCC[C@@H]1NC(=O)[C@H](Cc2c[nH]c3c(C)cccc23)NC(=O)[C@H]([C@@H](C)O)NC(=O)[C@H](CC(N)=O)NC(=O)[C@@H](NC(C)=O)C(C)(C)SSC(C)(C)[C@@H](C(=O)N[C@@H](Cc2ccc(OCCN)cc2)C(=O)N[C@@H](Cc2ccc3ccccc3c2)C(=O)NC2(C(=O)N[C@@H](CCC(=O)O)C(=O)N[C@@H](CC(N)=O)C(=O)N[C@@H](Cc3cccnc3)C(=O)N(C)CC(N)=O)CCOCC2)NC1=O [IL-23 receptor antagonist peptide, Ac-[Pen]*-N-T-[W(7-Me)]-[Lys(Ac)]-[Pen]*-Phe[4-(2-aminoethoxy)]-[2-Nal]-[THP]-E-N-[3-Pal]-Sarc-NH2 (*[Pen]-[Pen]* formdisulfidebond)]
- Subjects with Mouth ulceration: 0
- Subjects with Tendonitis: 0
- Subjects with 1 or more Adverse events (25 mg BID): (78.0%)
- Subjects with 1 or more Adverse events: Alanine aminotransferase increased (25 mg BID): (2.4%)
- Subjects with 1 or more Adverse events: Aspartate aminotransferase increased (25 mg BID): (2.4%)
- Subjects with 1 or more Adverse events: Bronchitis (25 mg BID): (4.9%)
- Subjects with 1 or more Adverse events: COVID-19 (25 mg BID): (22.0%)
- Subjects with 1 or more Adverse events: Diarrhea (25 mg BID): (4.9%)
- Subjects with 1 or more Adverse events: Headache (25 mg BID): (7.3%)
- Subjects with 1 or more Adverse events: Influenza (25 mg BID): (7.3%)
- Subjects with 1 or more Adverse events: Nasopharyngitis (25 mg BID): (19.5%)
- Subjects with 1 or more Adverse events: Upper respiratory tract infection (25 mg BID): (7.3%)
- Subjects with 1 or more Adverse events: Urinary tract infection (25 mg BID): (2.4%)
- Subjects with 1 or more Serious adverse events (25 mg BID): (7.3%)
- Subjects with 1 or more Serious adverse events: Ligament injury (25 mg BID): (2.4%)
- Subjects with 1 or more Serious adverse events: Tonsillar hypertrophy (25 mg BID): (2.4%)
- Subjects with 1 or more Serious adverse events: Ventricular dysfunction (25 mg BID): (2.4%)
- Subjects with 1 or more treatment-emergent adverse events leading to discontinuation of study agent (25 mg BID): (4.9%)
- Subjects with 1 or more Adverse events (25 mg QD): (55.8%)
- Subjects with 1 or more Adverse events: Alanine aminotransferase increased (25 mg QD): (2.3%)
- Subjects with 1 or more Adverse events: Arthralgia (25 mg QD): (2.3%)
- Subjects with 1 or more Adverse events: Aspartate aminotransferase increased (25 mg QD): (2.3%)
- Subjects with 1 or more Adverse events: Bronchitis (25 mg QD): (4.7%)
- Subjects with 1 or more Adverse events: COVID-19 (25 mg QD): (14.0%)
- Subjects with 1 or more Adverse events: Cough (25 mg QD): (2.3%)
- Subjects with 1 or more Adverse events: Diarrhea (25 mg QD): (4.7%)
- Subjects with 1 or more Adverse events: Headache (25 mg QD): (4.7%)
- Subjects with 1 or more Adverse events: Nasopharyngitis (25 mg QD): (7.0%)
- Subjects with 1 or more Adverse events: Upper respiratory tract infection (25 mg QD): (16.3%)
- Subjects with 1 or more Adverse events: Urinary tract infection (25 mg QD): (4.7%)
- Subjects with 1 or more treatment-emergent adverse events leading to discontinuation of study agent (25 mg QD): (7.0%)
- Subjects with 1 or more Adverse events (50 mg QD): (74.4%)
- Subjects with 1 or more Adverse events: Alanine aminotransferase increased (50 mg QD): (2.3%)
- Subjects with 1 or more Adverse events: Arthralgia (50 mg QD): (2.3%)
- Subjects with 1 or more Adverse events: Aspartate aminotransferase increased (50 mg QD): (2.3%)
- Subjects with 1 or more Adverse events: Bronchitis (50 mg QD): (9.3%)
- Subjects with 1 or more Adverse events: COVID-19 (50 mg QD): (14.0%)
- Subjects with 1 or more Adverse events: Cough (50 mg QD): (4.7%)
- Subjects with 1 or more Adverse events: Diarrhea (50 mg QD): (9.3%)
- Subjects with 1 or more Adverse events: Headache (50 mg QD): (2.3%)
- Subjects with 1 or more Adverse events: Influenza (50 mg QD): (2.3%)
- Subjects with 1 or more Adverse events: Nasopharyngitis (50 mg QD): (30.2%)
- Subjects with 1 or more Adverse events: Upper respiratory tract infection (50 mg QD): (7.0%)
- Subjects with 1 or more Adverse events: Urinary tract infection (50 mg QD): (2.3%)
- Subjects with 1 or more Serious adverse events (50 mg QD): (7.0%)
- Subjects with 1 or more Serious adverse events: Coronary artery disease (50 mg QD): (2.3%)
- Subjects with 1 or more Serious adverse events: Foot deformity (50 mg QD): (2.3%)
- Subjects with 1 or more Serious adverse events: Infected cyst (50 mg QD): (2.3%)
- Subjects with 1 or more Serious adverse events: Non-cardiac chest pain (50 mg QD): (2.3%)
- Subjects with 1 or more treatment-emergent adverse events leading to discontinuation of study agent (50 mg QD): (4.7%)
- Subjects with 1 or more Adverse events (100 mg BID): (76.2%)
- Subjects with 1 or more Adverse events: Alanine aminotransferase increased (100 mg BID): (9.5%)
- Subjects with 1 or more Adverse events: Arthralgia (100 mg BID): (4.8%)
- Subjects with 1 or more Adverse events: Aspartate aminotransferase increased (100 mg BID): (7.1%)
- Subjects with 1 or more Adverse events: COVID-19 (100 mg BID): (16.7%)
- Subjects with 1 or more Adverse events: Cough (100 mg BID): (4.8%)
- Subjects with 1 or more Adverse events: Diarrhea (100 mg BID): (2.4%)
- Subjects with 1 or more Adverse events: Headache (100 mg BID): (2.4%)
- Subjects with 1 or more Adverse events: Influenza (100 mg BID): (2.4%)
- Subjects with 1 or more Adverse events: Nasopharyngitis (100 mg BID): (11.9%)
- Subjects with 1 or more Adverse events: Upper respiratory tract infection (100 mg BID): (11.9%)
- Subjects with 1 or more Adverse events: Urinary tract infection (100 mg BID): (4.8%)
- Subjects with 1 or more Serious adverse events (100 mg BID): (2.4%)
- Subjects with 1 or more Serious adverse events: Uterine leiomyoma (100 mg BID): (2.4%)
- Subjects with 1 or more treatment-emergent adverse events leading to discontinuation of study agent (100 mg BID): (2.4%)
- Subjects with 1 or more Adverse events (100 mg QD): (72.1%)
- Subjects with 1 or more Adverse events: Arthralgia (100 mg QD): (7.0%)
- Subjects with 1 or more Adverse events: COVID-19 (100 mg QD): (11.6%)
- Subjects with 1 or more Adverse events: Cough (100 mg QD): (7.0%)
- Subjects with 1 or more Adverse events: Diarrhea (100 mg QD): (2.3%)
- Subjects with 1 or more Adverse events: Headache (100 mg QD): (11.6%)
- Subjects with 1 or more Adverse events: Influenza (100 mg QD): (2.3%)
- Subjects with 1 or more Adverse events: Nasopharyngitis (100 mg QD): (25.6%)
- Subjects with 1 or more Adverse events: Upper respiratory tract infection (100 mg QD): (4.7%)
- Subjects with 1 or more Serious adverse events (100 mg QD): (7.0%)
- Subjects with 1 or more Serious adverse events: COVID-19 (100 mg QD): (2.3%)
- Subjects with 1 or more Serious adverse events: Diverticulitis (100 mg QD): (2.3%)
- Subjects with 1 or more Serious adverse events: Intervertebral disc protrusion (100 mg QD): (2.3%)
- Subjects with 1 or more Serious adverse events: Suicide attempt (100 mg QD): (2.3%)
- Subjects with 1 or more treatment-emergent adverse events leading to discontinuation of study agent (100 mg QD): (4.7%)
- Subjects with 1 or more Adverse events (Combined): (70.4%)
- Subjects with 1 or more Adverse events: Alanine aminotransferase increased (Combined): (3.6%)
- Subjects with 1 or more Adverse events: Arthralgia (Combined): (3.2%)
- Subjects with 1 or more Adverse events: Aspartate aminotransferase increased (Combined): (2.8%)
- Subjects with 1 or more Adverse events: Bronchitis (Combined): (3.6%)
- Subjects with 1 or more Adverse events: COVID-19 (Combined): (14.2%)
- Subjects with 1 or more Adverse events: Cough (Combined): (3.2%)
- Subjects with 1 or more Adverse events: Diarrhea (Combined): (4.5%)
- Subjects with 1 or more Adverse events: Headache (Combined): (4.9%)
- Subjects with 1 or more Adverse events: Influenza (Combined): (2.8%)
- Subjects with 1 or more Adverse events: Nasopharyngitis (Combined): (19.8%)
- Subjects with 1 or more Adverse events: Upper respiratory tract infection (Combined): (9.7%)
- Subjects with 1 or more Adverse events: Urinary tract infection (Combined): (3.2%)
- Subjects with 1 or more Serious adverse events (Combined): (4.5%)
- Subjects with 1 or more Serious adverse events: COVID-19 (Combined): (0.4%)
- Subjects with 1 or more Serious adverse events: Cerebrovascular accident (Combined): (0.4%)
- Subjects with 1 or more Serious adverse events: Coronary artery disease (Combined): (0.4%)
- Subjects with 1 or more Serious adverse events: Diverticulitis (Combined): (0.4%)
- Subjects with 1 or more Serious adverse events: Foot deformity (Combined): (0.4%)
- Subjects with 1 or more Serious adverse events: Infected cyst (Combined): (0.4%)
- Subjects with 1 or more Serious adverse events: Intervertebral disc protrusion (Combined): (0.4%)
- Subjects with 1 or more Serious adverse events: Ligament injury (Combined): (0.4%)
- Subjects with 1 or more Serious adverse events: Non-cardiac chest pain (Combined): (0.4%)
- Subjects with 1 or more Serious adverse events: Suicide attempt (Combined): (0.4%)
- Subjects with 1 or more Serious adverse events: Tonsillar hypertrophy (Combined): (0.4%)
- Subjects with 1 or more Serious adverse events: Uterine leiomyoma (Combined): (0.4%)
- Subjects with 1 or more Serious adverse events: Ventricular dysfunction (Combined): (0.4%)
- Subjects with 1 or more treatment-emergent adverse events leading to discontinuation of study agent (Combined): (4.0%)
- Subjects with 1 or more Adverse events [1]: (65.7%)
- Subjects with 1 or more Adverse events: Alanine aminotransferase increased [1]: (5.7%)
- Subjects with 1 or more Adverse events: Arthralgia [1]: (2.9%)
- Subjects with 1 or more Adverse events: Aspartate aminotransferase increased [1]: (2.9%)
- Subjects with 1 or more Adverse events: Bronchitis [1]: (2.9%)
- Subjects with 1 or more Adverse events: COVID-19 [1]: (5.7%)
- Subjects with 1 or more Adverse events: Diarrhea [1]: (2.9%)
- Subjects with 1 or more Adverse events: Influenza [1]: (2.9%)
- Subjects with 1 or more Adverse events: Nasopharyngitis [1]: (25.7%)
- Subjects with 1 or more Adverse events: Upper respiratory tract infection [1]: (11.4%)
- Subjects with 1 or more Adverse events: Urinary tract infection [1]: (5.7%)
- Subjects with 1 or more Serious adverse events [1]: (2.9%)
- Subjects with 1 or more Serious adverse events: Cerebrovascular accident [1]: (2.9%)
